In data set [1] the test system is irritable bowel syndrome (IBS) symptoms. Kind of data set: Patient subjective evaluation of IBS symptoms before and after treatment (case studies). Format: in vivo, human.
Description: Each patient subjectively evaluated his or her symptoms both before and after treatment on a scale from 0 to 10 with 0 representing the absence of symptoms and 10 indicating the most severe symptoms. […] Patient 2 also was treated with Gemfibrozil 600 mg twice daily. […] Patient 3 was originally treated with Gemfibrozil 600 mg twice daily.
The test system of data set [2] is HDL (high density lipoprotein) level. As to the kind of experiment: HDL level of Patient 1 after treatment. In kind it is in vivo, human. The note with it: Gemfibrozil 600 mg twice a day, later testing. From the text:
Patient 1 suffered from a variety of conditions including diabetes, post traumatic attention deficit disorder, and irritable bowel syndrome. […] However, upon resuming the Gemfibrozil treatment, the levels were again reduced.

Setting [3] is: Patient 1, Gemfibrozil 600 mg twice a day, within a day, scale 0 to 10, before 8.
[4] abbreviates: Patient 2, Gemfibrozil 600 mg twice daily, after 1.5 days, scale 0 to 10, before 0.
[5] abbreviates: Patient 3, Gemfibrozil 600 mg twice daily, after 2 days, scale 0 to 10, before 7.

As for `Cc1ccc(C)c(OCCCC(C)(C)C(=O)O)c1` [Gemfibrozil, 5-(2,5-dimethylphenoxy)-2,2-dimethylpentanoic acid], the “Change of evaluation of IBS symptoms” value in data set [1] (Patient 1, Gemfibrozil 600 mg twice a day, within a day) is listed as “significant improvement”. In addition, the “Patient evaluation of symptoms: Gas (After)” value in data set [1] (Patient 1, Gemfibrozil 600 mg twice a day, within a day, scale 0 to 10 (0 absence, 10 most severe), before 4) stood at 1; in data set [1] (Patient 2, Gemfibrozil 600 mg twice daily, after 1.5 days of treatment, scale 0 to 10, before 4.5), 0; in data set [1] (Patient 3, Gemfibrozil 600 mg twice daily, after 2 days of treatment, scale 0 to 10, before 3) it was 1. The “Patient evaluation of symptoms: Constipation (After)” value in data set [1] (Patient 1, Gemfibrozil 600 mg twice a day, within a day, scale 0 to 10, before 0) worked out at 0; in data set [1] (setting [4]), 3; in data set [1] (Patient 3, Gemfibrozil 600 mg twice daily, after 2 days, scale 0 to 10, before 0), 0. The “Patient evaluation of symptoms: Overall (After)” value is listed as 1 in data set [1] (Patient 1, Gemfibrozil 600 mg twice a day, within a day, scale 0 to 10, before 6.5); 1 in data set [1] (Patient 2, Gemfibrozil 600 mg twice daily, after 1.5 days, scale 0 to 10, before 9); 2 in data set [1] (setting [5]). The “Patient evaluation of symptoms: Cramps/Pain (After)” value in data set [1] (setting [3]) is 1; in data set [1] (Patient 2, Gemfibrozil 600 mg twice daily, after 1.5 days, scale 0 to 10, before 5), 0; in data set [1] (setting [5]) it was 2. Moreover, the “Patient evaluation of symptoms: Mucus (After)” value in data set [1] (setting [3]) is on record as 2; in data set [1] (setting [4]) it was 0; in data set [1] (Patient 3, Gemfibrozil 600 mg twice daily, after 2 days, scale 0 to 10, before 3), 0. Also, the “Patient evaluation of symptoms: Diarrhea (After)” value is on record as 1 in data set [1] (Patient 1, Gemfibrozil 600 mg twice a day, within a day, scale 0 to 10, before 9); 0 in data set [1] (Patient 2, Gemfibrozil 600 mg twice daily, after 1.5 days, scale 0 to 10, before 8.5); 3 in data set [1] (Patient 3, Gemfibrozil 600 mg twice daily, after 2 days, scale 0 to 10, before 9). For the same compound, in data set [1] (Patient 1, Gemfibrozil treatment resumed), the “IBS symptom levels upon resuming treatment” value is “again reduced”. Also, in data set [1] (Patient 1, use of Gemfibrozil discontinued), the “IBS symptoms on discontinued use” value is “returned to the before levels”. For the same compound, the “Side effect experienced under treatment” value in data set [1] (Patient 2, Gemfibrozil 600 mg twice daily) is “occasional constipation”. The “IBS symptoms after treatment” value in data set [1] (Patient 2, Gemfibrozil 600 mg twice daily, after 1.5 days of treatment) was “virtually disappeared”; in data set [1] (Patient 3, Gemfibrozil 600 mg twice daily, after 2 days of treatment), “greatly improved”. Moreover, the “HDL level after treatment” value in data set [2] is “increased”.
Take `CC(C)OC(=O)C(C)(C)Oc1ccc(C(=O)c2ccc(Cl)cc2)cc1` [micronized fenofibrate, 2-(4-(4-chlorobenzoyl)phenoxy)-2-methyl-propanoic acid 1-methyl ethyl ester]: the “Patient evaluation of symptoms in all categories” value in data set [1] (Patient 3, micronized fenofibrate 200 mg daily, after discontinuing Gemfibrozil, scale 0 to 10) stood at 0.

The values are drawn from patent publication US7601756B2, “Method of treatment for irritable bowel syndrome” (Snowden Pharmaceuticals, LLC, priority 2003, dated 2009).
